Tests used:
lambsquarters [1] = test: Test Example 4: herbicidal effect by soil treatment (Table 19, symbol O); format: in vivo, lambsquarters (Chenopodium album)
Outline: (§1)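 Pre-emergence style soil spray: seeds under ~1.5 cm sterilized diluvial soil received a uniform coat of emulsion diluted to the predetermined herbicide amount. Greenhouse 25–30° C; readout at week three on previously defined criteria.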

barnyard grass [2] = test: Test Example 3: herbicidal effect by foliage application, Wagner pot (Table 18, symbol H); format: in vivo, barnyard grass (Echinochloa crus-galli)
Outline: (§2)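 Plants were sown in alluvial soil held under 0.1–0.5 cm standing water and grown 14 days in a greenhouse at 25–30 °C. An emulsifiable formulation, water-diluted to the set dose, was then sprayed onto the foliage, and effects were scored three weeks later using previously defined criteria.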

velvetleaf [3] = test: Test Example 5: herbicidal effect by foliage application, plastic box (Table 20, symbol M); format: in vivo, velvetleaf (Abutilon theophrasti); conditions: foliage application, 320 g/ha, evaluated three weeks after application
Outline: (§3)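 Plants were sown into sterilized diluvial soil under about 1.5 cm cover and kept in a greenhouse at 25° C. to 30° C. Fourteen days on, foliage received an even spray of the diluted emulsion. Herbicidal or crop effect was judged three weeks afterwards.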

barnyard grass [4] = test: Test Example 4: herbicidal effect by soil treatment (Table 19, symbol H); format: in vivo, barnyard grass (Echinochloa crus-galli)
Outline: as §1

oval-leafed pondweed = test: Test Example 1: herbicidal activity, application before weed generation under submerged conditions (Table 16, symbol C); format: in vivo, oval-leafed pondweed (Monochoria vaginalis); conditions: 320 g/ha applied herbicide
Outline: (§4)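 Emulsion formulation, water-diluted to set dose, was put onto the flooded surface (4 cm depth, alluvial soil) the same day weeds were sown and 2.5-leaf rice transplanted. After 3 weeks at 25-30 °C under glass, each species was rated 0 (≤5% kill) to 5 (≥90% kill).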

false cleavers [5] = test: Test Example 4: herbicidal effect by soil treatment (Table 19, symbol Q); format: in vivo, false cleavers (Galium spurium)
Outline: as §1

southern crabgrass [6] = test: Test Example 5: herbicidal effect by foliage application, plastic box (Table 20, symbol F); format: in vivo, southern crabgrass (Digitaria ciliaris); conditions: foliage application, 320 g/ha, evaluated three weeks after application
Outline: as §3

wild oat [7] = test: Test Example 5: herbicidal effect by foliage application, plastic box (Table 20, symbol I); format: in vivo, wild oat (Avena fatua); conditions: foliage application, 320 g/ha, evaluated three weeks after application
Outline: as §3

false cleavers [8] = test: Test Example 5: herbicidal effect by foliage application, plastic box (Table 20, symbol Q); format: in vivo, false cleavers (Galium spurium); conditions: foliage application, 320 g/ha, evaluated three weeks after application
Outline: as §3

persian speedwell [9] = test: Test Example 4: herbicidal effect by soil treatment (Table 19, symbol R); format: in vivo, Persian speedwell (Veronica persica)
Outline: as §1

persian speedwell [10] = test: Test Example 5: herbicidal effect by foliage application, plastic box (Table 20, symbol R); format: in vivo, Persian speedwell (Veronica persica); conditions: foliage application, 320 g/ha, evaluated three weeks after application
Outline: as §3

chickweed [11] = test: Test Example 5: herbicidal effect by foliage application, plastic box (Table 20, symbol P); format: in vivo, common chickweed (Stellaria media); conditions: foliage application, 320 g/ha, evaluated three weeks after application
Outline: as §3

windgrass [12] = test: Test Example 5: herbicidal effect by foliage application, plastic box (Table 20, symbol L); format: in vivo, windgrass (Apera spica-venti); conditions: foliage application, 320 g/ha, evaluated three weeks after application
Outline: as §3

green foxtail [13] = test: Test Example 4: herbicidal effect by soil treatment (Table 19, symbol G); format: in vivo, green foxtail (Setaria viridis)
Outline: as §1

wild oat [14] = test: Test Example 4: herbicidal effect by soil treatment (Table 19, symbol I); format: in vivo, wild oat (Avena fatua)
Outline: as §1

Italian ryegrass [15] = test: Test Example 4: herbicidal effect by soil treatment (Table 19, symbol K); format: in vivo, Italian ryegrass (Lolium multiflorum)
Outline: as §1

rice flat sedge = test: Test Example 3: herbicidal effect by foliage application, Wagner pot (Table 18, symbol E); format: in vivo, rice flat sedge (Cyperus iria)
Outline: as §2

redroot pigweed [16] = test: Test Example 4: herbicidal effect by soil treatment (Table 19, symbol N); format: in vivo, redroot pigweed (Amaranthus retroflexus)
Outline: as §1

Italian ryegrass [17] = test: Test Example 5: herbicidal effect by foliage application, plastic box (Table 20, symbol K); format: in vivo, Italian ryegrass (Lolium multiflorum); conditions: foliage application, 320 g/ha, evaluated three weeks after application
Outline: as §3

green foxtail [18] = test: Test Example 5: herbicidal effect by foliage application, plastic box (Table 20, symbol G); format: in vivo, green foxtail (Setaria viridis); conditions: foliage application, 320 g/ha, evaluated three weeks after application
Outline: as §3

blackgrass [19] = test: Test Example 5: herbicidal effect by foliage application, plastic box (Table 20, symbol J); format: in vivo, blackgrass (Alopecurus myosuroides); conditions: foliage application, 320 g/ha, evaluated three weeks after application
Outline: as §3

southern crabgrass [20] = test: Test Example 4: herbicidal effect by soil treatment (Table 19, symbol F); format: in vivo, southern crabgrass (Digitaria ciliaris)
Outline: as §1

redroot pigweed [21] = test: Test Example 5: herbicidal effect by foliage application, plastic box (Table 20, symbol N); format: in vivo, redroot pigweed (Amaranthus retroflexus); conditions: foliage application, 320 g/ha, evaluated three weeks after application
Outline: as §3

Japanese bulrush = test: Test Example 1: herbicidal activity, application before weed generation under submerged conditions (Table 16, symbol B); format: in vivo, Japanese bulrush (Schoenoplectus juncoides); conditions: 320 g/ha applied herbicide
Outline: as §4

late watergrass = test: Test Example 1: herbicidal activity, application before weed generation under submerged conditions (Table 16, symbol A); format: in vivo, late watergrass (Echinochloa oryzicola); conditions: 320 g/ha applied herbicide
Outline: as §4

lambsquarters [22] = test: Test Example 5: herbicidal effect by foliage application, plastic box (Table 20, symbol O); format: in vivo, lambsquarters (Chenopodium album); conditions: foliage application, 320 g/ha, evaluated three weeks after application
Outline: as §3

Chinese sprangletop = test: Test Example 3: herbicidal effect by foliage application, Wagner pot (Table 18, symbol D); format: in vivo, chinese sprangletop (Leptochloa chinensis)
Outline: as §2

windgrass [23] = test: Test Example 4: herbicidal effect by soil treatment (Table 19, symbol L); format: in vivo, windgrass (Apera spica-venti)
Outline: as §1

barnyard grass [24] = test: Test Example 5: herbicidal effect by foliage application, plastic box (Table 20, symbol H); format: in vivo, barnyard grass (Echinochloa crus-galli); conditions: foliage application, 320 g/ha, evaluated three weeks after application
Outline: as §3

chickweed [25] = test: Test Example 4: herbicidal effect by soil treatment (Table 19, symbol P); format: in vivo, common chickweed (Stellaria media)
Outline: as §1

velvetleaf [26] = test: Test Example 4: herbicidal effect by soil treatment (Table 19, symbol M); format: in vivo, velvetleaf (Abutilon theophrasti)
Outline: as §1

blackgrass [27] = test: Test Example 4: herbicidal effect by soil treatment (Table 19, symbol J); format: in vivo, blackgrass (Alopecurus myosuroides)
Outline: as §1

[28] = amount of applied herbicide 320 g/ha

CCCC(=O)Oc1c(C)nn(C)c(=O)c1-c1c(-c2ccc(F)cc2OC)sc2ccc(Cl)cc12 [2-096]
herbicidal effect rating, O: lambsquarters (lambsquarters [1]; 320 g/ha): 3 (Herbicidal rate of 40% or more and less than 70%) | herbicidal effect on H (barnyard grass), rating 0-5 (barnyard grass [2]; 320 g/ha): 3 (Herbicidal rate of 40% or more and less than 70%) | herbicidal effect on M: velvetleaf (velvetleaf [3]): 1 (Herbicidal rate of 5% or more and less than 20%) | herbicidal effect rating, H: barnyard grass (barnyard grass [4]; 320 g/ha): 2 (Herbicidal rate of 20% or more and less than 40%) | Herbicidal effect on C: oval-leafed pondweed (grade 0-5) (oval-leafed pondweed): 2 (Herbicidal rate of 20% or more and less than 40%) | herbicidal effect rating, Q: false cleavers (false cleavers [5]; 320 g/ha): 0 (Herbicidal rate of 5% or less (almost no effect)) | herbicidal effect on F: southern crabgrass (southern crabgrass [6]): 3 (Herbicidal rate of 40% or more and less than 70%) | herbicidal effect on I: wild oat (wild oat [7]): 0 (Herbicidal rate of 5% or less (almost no effect)) | herbicidal effect on Q: false cleavers (false cleavers [8]): 4 (Herbicidal rate of 70% or more and less than 90%) | herbicidal effect rating, R: persian speedwell (persian speedwell [9]; 320 g/ha): 0 (Herbicidal rate of 5% or less (almost no effect)) | herbicidal effect on R: persian speedwell (persian speedwell [10]): 3 (Herbicidal rate of 40% or more and less than 70%) | herbicidal effect on P: chickweed (chickweed [11]): 5 (Herbicidal rate of 90% or more (almost completely withered)) | herbicidal effect on L: windgrass (windgrass [12]): 4 (Herbicidal rate of 70% or more and less than 90%) | herbicidal effect rating, G: green foxtail (green foxtail [13]; 320 g/ha): 3 (Herbicidal rate of 40% or more and less than 70%) | herbicidal effect rating, I: wild oat (wild oat [14]; 320 g/ha): 0 (Herbicidal rate of 5% or less (almost no effect)) | herbicidal effect rating, K: Italian ryegrass (Italian ryegrass [15]; 320 g/ha): 0 (Herbicidal rate of 5% or less (almost no effect)) | herbicidal effect on E (rice flat sedge), rating 0-5 (rice flat sedge; 320 g/ha): 3 (Herbicidal rate of 40% or more and less than 70%) | herbicidal effect rating, N: redroot pigweed (redroot pigweed [16]; 320 g/ha): 5 (Herbicidal rate of 90% or more (almost completely withered)) | herbicidal effect on K: Italian ryegrass (Italian ryegrass [17]): 0 (Herbicidal rate of 5% or less (almost no effect)) | herbicidal effect on G: green foxtail (green foxtail [18]): 3 (Herbicidal rate of 40% or more and less than 70%) | herbicidal effect on J: blackgrass (blackgrass [19]): 4 (Herbicidal rate of 70% or more and less than 90%) | herbicidal effect rating, F: southern crabgrass (southern crabgrass [20]; 320 g/ha): 3 (Herbicidal rate of 40% or more and less than 70%) | herbicidal effect on N: redroot pigweed (redroot pigweed [21]): 3 (Herbicidal rate of 40% or more and less than 70%) | Herbicidal effect on B: Japanese bulrush (grade 0-5) (Japanese bulrush): 3 (Herbicidal rate of 40% or more and less than 70%) | Herbicidal effect on A: late watergrass (grade 0-5) (late watergrass): 1 (Herbicidal rate of 5% or more and less than 20%) | herbicidal effect on O: lambsquarters (lambsquarters [22]): 3 (Herbicidal rate of 40% or more and less than 70%) | herbicidal effect on D (Chinese sprangletop), rating 0-5 (Chinese sprangletop; 320 g/ha): 1 (Herbicidal rate of 5% or more and less than 20%) | herbicidal effect rating, L: windgrass (windgrass [23]; 320 g/ha): 0 (Herbicidal rate of 5% or less (almost no effect)) | herbicidal effect on H: barnyard grass (barnyard grass [24]): 4 (Herbicidal rate of 70% or more and less than 90%) | herbicidal effect rating, P: chickweed (chickweed [25]; 320 g/ha): 4 (Herbicidal rate of 70% or more and less than 90%) | herbicidal effect rating, M: velvetleaf (velvetleaf [26]; 320 g/ha): 0 (Herbicidal rate of 5% or less (almost no effect)) | herbicidal effect rating, J: blackgrass (blackgrass [27]; 320 g/ha): 0 (Herbicidal rate of 5% or less (almost no effect))

COc1ccc2sc(-c3ccccc3OC)c(-c3c(O)c(C)nn(C)c3=O)c2c1 [2-165]
O: lambsquarters, herbicidal effect rating (lambsquarters [1]; [28]): 4 (Herbicidal rate of 70% or more and less than 90%) | herbicidal effect on H: barnyard grass (barnyard grass [2]; [28]): 5 (Herbicidal rate of 90% or more (almost completely withered)) | herbicidal effect on M: velvetleaf (criteria 0-5) (velvetleaf [3]): 5 (Herbicidal rate of 90% or more (almost completely withered)) | H: barnyard grass, herbicidal effect rating (barnyard grass [4]; [28]): 3 (Herbicidal rate of 40% or more and less than 70%) | Herbicidal effect on C: oval-leafed pondweed (grade 0-5) (oval-leafed pondweed): 1 (Herbicidal rate of 5% or more and less than 20%) | Q: false cleavers, herbicidal effect rating (false cleavers [5]; [28]): 3 (Herbicidal rate of 40% or more and less than 70%) | herbicidal effect on F: southern crabgrass (criteria 0-5) (southern crabgrass [6]): 5 (Herbicidal rate of 90% or more (almost completely withered)) | herbicidal effect on I: wild oat (criteria 0-5) (wild oat [7]): 5 (Herbicidal rate of 90% or more (almost completely withered)) | herbicidal effect on Q: false cleavers (criteria 0-5) (false cleavers [8]): 5 (Herbicidal rate of 90% or more (almost completely withered)) | R: persian speedwell, herbicidal effect rating (persian speedwell [9]; [28]): 5 (Herbicidal rate of 90% or more (almost completely withered)) | herbicidal effect on R: persian speedwell (criteria 0-5) (persian speedwell [10]): 4 (Herbicidal rate of 70% or more and less than 90%) | herbicidal effect on P: chickweed (criteria 0-5) (chickweed [11]): 5 (Herbicidal rate of 90% or more (almost completely withered)) | herbicidal effect on L: windgrass (criteria 0-5) (windgrass [12]): 5 (Herbicidal rate of 90% or more (almost completely withered)) | G: green foxtail, herbicidal effect rating (green foxtail [13]; [28]): 4 (Herbicidal rate of 70% or more and less than 90%) | I: wild oat, herbicidal effect rating (wild oat [14]; [28]): 2 (Herbicidal rate of 20% or more and less than 40%) | K: Italian ryegrass, herbicidal effect rating (Italian ryegrass [15]; [28]): 0 (Herbicidal rate of 5% or less (almost no effect)) | herbicidal effect on E: rice flat sedge (rice flat sedge; [28]): 5 (Herbicidal rate of 90% or more (almost completely withered)) | N: redroot pigweed, herbicidal effect rating (redroot pigweed [16]; [28]): 4 (Herbicidal rate of 70% or more and less than 90%) | herbicidal effect on K: Italian ryegrass (criteria 0-5) (Italian ryegrass [17]): 4 (Herbicidal rate of 70% or more and less than 90%) | herbicidal effect on G: green foxtail (criteria 0-5) (green foxtail [18]): 5 (Herbicidal rate of 90% or more (almost completely withered)) | herbicidal effect on J: blackgrass (criteria 0-5) (blackgrass [19]): 5 (Herbicidal rate of 90% or more (almost completely withered)) | F: southern crabgrass, herbicidal effect rating (southern crabgrass [20]; [28]): 3 (Herbicidal rate of 40% or more and less than 70%) | herbicidal effect on N: redroot pigweed (criteria 0-5) (redroot pigweed [21]): 5 (Herbicidal rate of 90% or more (almost completely withered)) | Herbicidal effect on B: Japanese bulrush (grade 0-5) (Japanese bulrush): 0 (Herbicidal rate of 5% or less (almost no effect)) | Herbicidal effect on A: late watergrass (grade 0-5) (late watergrass): 3 (Herbicidal rate of 40% or more and less than 70%) | herbicidal effect on O: lambsquarters (criteria 0-5) (lambsquarters [22]): 5 (Herbicidal rate of 90% or more (almost completely withered)) | herbicidal effect on D: Chinese sprangletop (Chinese sprangletop; [28]): 3 (Herbicidal rate of 40% or more and less than 70%) | L: windgrass, herbicidal effect rating (windgrass [23]; [28]): 4 (Herbicidal rate of 70% or more and less than 90%) | herbicidal effect on H: barnyard grass (criteria 0-5) (barnyard grass [24]): 5 (Herbicidal rate of 90% or more (almost completely withered)) | P: chickweed, herbicidal effect rating (chickweed [25]; [28]): 4 (Herbicidal rate of 70% or more and less than 90%) | M: velvetleaf, herbicidal effect rating (velvetleaf [26]; [28]): 2 (Herbicidal rate of 20% or more and less than 40%) | J: blackgrass, herbicidal effect rating (blackgrass [27]; [28]): 4 (Herbicidal rate of 70% or more and less than 90%)
